The results in this text go back to PubChem BioAssay (NCI).

Common to all, as to assay: DTP human tumour cell line panel, 48 h
The test system of assay [1] is TK-10 renal.
The test system of assay [2] is LOX IMVI melanoma.
Assay [3] relates to SN12C renal.
In assay [4] the test system is T-47D breast.
Assay [5] concerns HL-60(TB) leukemia.
Assay [6] relates to COLO 205 colon.
For assay [7], the system named is MALME-3M melanoma.
Assay [8] relates to SK-MEL-5 melanoma.
Assay [9] concerns BT-549 breast.
Assay [10] has as its system EKVX NSCLC.

SMILES strings stand for the structures.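 Cells were grown in 96-well plates and exposed to each compound for 48 hours at five concentrations; endpoints were interpolated linearly between bracketing concentrations, or set to the highest concentration if not reached. The concentration for 50% growth inhibition is given as GI50. TGI denotes the concentration required for complete inhibition of growth.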

Take `COc1ccc(O)c(C(=O)c2ccc(C(=O)O[C@@H]3CCCNC[C@H]3NC(=O)c3ccncc3)cc2)c1F`: the GI50 is 3.51 µM in assay [1]; 1.19 µM in assay [2]; 1.34 µM in assay [3]; 1.36 µM in assay [4]; 0.753 µM in [5]; 1.16 µM in [6]. For the same compound, the GI50 in [7] was 1.57 µM; in assay [8] it was 0.541 µM; in [9], 0.212 µM. In addition, the concentration for total growth inhibition (TGI) in assay [1] was > 25 µM; in [2] it was > 25 µM; in assay [3], > 25 µM; in assay [4], > 25 µM; in [5] it was 2.34 µM; in assay [6] it was > 25 µM. Also, the concentration for total growth inhibition (TGI) in assay [7] is > 25 µM; in [8] it was 3.15 µM; in [9], 3.36 µM.

Turning to `O=C1c2ccccc2C(=O)N1c1ccc(S(=O)(=O)Nc2ncccn2)cc1`, the GI50 in assay [1], in [2], in assay [3], in assay [10], in assay [5] and in assay [6] was > 100 µM throughout. In addition, the GI50 in [7], in [8] and in [9] was > 100 µM throughout. The concentration for total growth inhibition (TGI) in assay [1], in assay [2], in assay [3], in [10], in assay [5] and in assay [6] was > 100 µM throughout. In addition, the TGI in assay [7], in assay [8] and in assay [9] was > 100 µM each time.

Consider `COc1ccc2[nH]cc(-c3nc(-c4cn(C)c5ccncc45)cs3)c2c1`, for which the GI50 in assay [1] is 1.48 µM; in assay [3], 1.64 µM; in assay [10], 1.92 µM; in assay [5] it was 1.9 µM; in assay [7] it was 2.11 µM; in assay [8], 1.64 µM. Also, the GI50 in assay [9] was 1.79 µM. For the same compound, the TGI in assay [1] came to 3.12 µM; in [3], 3.08 µM; in assay [10], 3.92 µM; in [5], 4.12 µM; in assay [7], 3.65 µM; in [8] it was 3.04 µM. This compound showed a TGI in [9] of 3.4 µM.

In the case of `C#C[C@]1(O)CC[C@H]2[C@@H]3CC=C4c5sc(N=C(N)N)nc5CC[C@]4(C)[C@H]3CC[C@@]21C`, the GI50 in assay [1] was 1.85 µM; in [2], 0.443 µM; in assay [3], 1.31 µM; in assay [10], 1.25 µM; in [4], 1.19 µM; in assay [5] it was 0.425 µM. For the same compound, the GI50 is 0.667 µM in [6], 0.338 µM in [7], 0.628 µM in [8] and 1.08 µM in assay [9]. Also, the TGI in [1] stood at 3.44 µM; in [2], 1.63 µM; in assay [3], 2.72 µM; in assay [10], 2.85 µM; in [4], 3.16 µM; in assay [5], 1.92 µM. In addition, the TGI came out at 2.24 µM in assay [6], 1.19 µM in assay [7], 1.66 µM in assay [8] and 2.49 µM in assay [9].

On to `COc1cc(-c2[nH]ccc2Cl)oc1C1=C2N=C3C=C2C(C(C)C)C1CCCCCCCC3` (stereo not drawn), for which the TGI amounted to 5.19 µM in [1]; 0.348 µM in assay [2]; 3 µM in assay [3]; 3.51 µM in assay [10]; 0.943 µM in assay [5]; 1.87 µM in assay [6]. Moreover, the figures for the TGI in assay [7], in assay [8] and in assay [9] were 2.49 µM, 0.813 µM and 2.32 µM, respectively.

`N#Cc1ccccc1C#C/C=C\C#Cc1ccc(OCCCNC(=O)c2cc3ccccc3[nH]2)cc1`: the GI50 in assay [1] was 15.7 µM; in assay [2], 11.5 µM; in [10] it was 17.1 µM; in [4], 12.4 µM; in assay [6], 15.9 µM; in assay [7] it was 14 µM. Besides, the values for the GI50 in assay [8] and in [9] were 4.24 µM and 20.2 µM, respectively. The TGI in [1] was found to be 34 µM; in assay [2], 23.7 µM; in [10] it was 96.6 µM; in [4], 29.7 µM; in assay [6], 44.6 µM; in [7], 34.8 µM. Moreover, the TGI in assay [8] was 20.2 µM; in assay [9], > 100 µM.

On to `COc1cc(CSc2nc3ccc(C)cc3c(=O)n2Cc2ccccc2)cc(OC)c1OC`, for which the GI50 is 6.47 µM in assay [1]; 4.66 µM in assay [2]; 6.53 µM in [3]; 2.98 µM in [4]; 3.3 µM in [5]; 1.05 µM in assay [6]. The figures for the GI50 in assay [7], in assay [8] and in assay [9] were 3.09 µM, 1.45 µM and 7.07 µM, respectively. The TGI is 47.9 µM in assay [1]; > 100 µM in assay [2]; > 100 µM in [3]; 32.6 µM in assay [4]; > 100 µM in assay [5]; 3.13 µM in assay [6]. Moreover, the TGI in assay [7] was found to be 34.3 µM; in assay [8] it was 12.8 µM; in assay [9], 77.5 µM.

For the compound `C=CC1CC12C(=O)C1OC2(C)C2C(=O)c3c(ccc4c3ccc3ccccc34)C(=O)C12` (stereo not drawn), the GI50 was 52.9 µM in assay [1]; 64.3 µM in [3]; 78.6 µM in assay [10]; 19.7 µM in assay [4]; 31 µM in [5]; 51 µM in assay [6]. Also, the GI50 in assay [7] was 16.8 µM; in assay [9], 58.9 µM. Further, the TGI in assay [1], in [3], in assay [10], in assay [4], in assay [5] and in assay [6] was > 100 µM throughout. The TGI in assay [7] and in [9] was > 100 µM in each case.

For the compound `CC(=O)O[C@@H]1CO[C@H]2O[C@H]3[C@@H](C(C=O)=C[C@H](O)[C@@H]4C5=C(C(C)C)CC[C@]5(C)CC[C@@]34C)[C@@]2(O)C1=O`, the TGI was determined as 0.596 µM in [1]; 0.687 µM in assay [2]; 0.448 µM in assay [3]; 1.28 µM in [10]; 0.378 µM in assay [4]; 0.249 µM in [6]. Besides, the TGI turned out to be 0.347 µM in assay [7], 0.577 µM in [8] and 0.353 µM in assay [9].

`Nc1ccc2c(c1)C(=O)c1c(F)cccc1-2`: the TGI is > 100 µM in assay [1]; > 100 µM in [2]; > 100 µM in assay [3]; 37.7 µM in [10]; > 100 µM in assay [4]; > 100 µM in [6]. Besides, the figures for the TGI in assay [7], in assay [8] and in assay [9] were > 100 µM, 95.1 µM and > 100 µM, respectively.

In the case of `CCN(CC)CCOc1ccc(/C=C2\CC3C4CCC5=CC(=O)CC[C@]5(C)C4CC[C@]3(C)C2=O)cc1OC` (stereo partly drawn), the GI50 in [1] was 2.45 µM; in [2], 1.89 µM; in assay [3], 2.6 µM; in assay [10] it was 4.88 µM; in [4], 3.14 µM; in assay [6], 1.75 µM. In addition, the GI50 in [7] was 1.5 µM; in [8], 1.63 µM; in assay [9] it was 5.02 µM. Also, the TGI came to 5.59 µM in [1]; 4.43 µM in assay [2]; 7.06 µM in assay [3]; 19.5 µM in [10]; 17.1 µM in assay [4]; 4.61 µM in assay [6]. The TGI in [7] was 2.95 µM; in assay [8], 3.28 µM; in assay [9], 19.7 µM.

For the compound `COC(=O)c1ccccc1NC(=O)/C(=N\NC(C)(C)C)C(C#N)c1nc(-c2ccc([N+](=O)[O-])cc2)cs1` (stereo not drawn), the TGI in [2], in [3], in [10], in assay [4], in assay [5] and in assay [6] was > 100 µM throughout. Further, the TGI in [7], in assay [8] and in [9] was > 100 µM in each case.

In the case of `O=Cc1ccc(-c2ccc(-c3ccc(C=O)s3)o2)s1`, the TGI in [1] is 7.33 µM; in [2], > 100 µM; in assay [3], > 100 µM; in assay [10] it was > 90 µM; in [5], > 100 µM; in [6], 37 µM. Also, the TGI in [7], in assay [8] and in assay [9] was > 100 µM each time.

Regarding `O=S1(=O)CCN(Cc2ccccn2)CC1`, the TGI in assay [1], in [2], in [3], in assay [10], in assay [4] and in [6] was > 100 µM each time. For the same compound, the TGI in assay [7], in assay [8] and in assay [9] was > 100 µM in each case.

On to `O=C1/C(=C/c2ccccc2Cl)N=C(c2ccccc2)N1Cc1ccco1`, for which the GI50 in assay [1] is > 100 µM; in assay [3], 50.6 µM; in assay [10] it was 54 µM; in [4], 53.2 µM; in assay [6], 51.4 µM; in assay [7], 16.6 µM. Further, the GI50 in assay [8] is 17.9 µM; in assay [9] it was 39.8 µM. Further, the TGI was > 100 µM in assay [1]; > 100 µM in assay [3]; > 100 µM in assay [10]; > 100 µM in assay [4]; > 100 µM in assay [6]; 36 µM in assay [7]. Besides, the TGI in [8] was 36.3 µM; in assay [9], > 100 µM.

`CCCCC(=O)N/N=C/c1cc(I)cc(I)c1O`: the GI50 in [2] was 2.62 µM; in assay [3], 3.77 µM; in assay [5], 2.49 µM; in assay [6], 3.59 µM; in assay [8], 3.22 µM; in [9] it was 4.48 µM. Besides, the TGI in assay [2] was found to be 13.4 µM; in assay [3] it was 26.1 µM; in [5], 7.27 µM; in assay [6], 26.9 µM; in assay [8] it was 15.3 µM; in [9], 29.5 µM.

On to `COc1cnc2c(c1)C(=O)c1c-2n(CCCn2ccnc2)c(=O)c2cc(Cl)ccc12`, for which the GI50 in assay [1] is 0.744 µM; in [2] it was 0.0198 µM; in assay [10], 0.251 µM; in [4], 0.0263 µM; in assay [6], 0.0332 µM; in assay [7], 0.293 µM. The GI50 in assay [8] is 0.0387 µM; in assay [9], 0.146 µM. The TGI in assay [1] was > 100 µM; in assay [2] it was 0.116 µM; in [10], > 100 µM; in assay [4], 0.309 µM; in [6] it was 2.09 µM; in assay [7], 37.4 µM. Besides, the TGI in assay [8] is 0.164 µM; in assay [9] it was > 100 µM.

In the case of `O=[N+]([O-])c1ccccc1N=Nc1c(O)[nH]c2ccccc12`, the TGI in [1] was > 100 µM; in assay [2], > 53 µM; in [3], > 61.6 µM; in assay [10], 97.6 µM; in [4], > 100 µM; in assay [5], > 100 µM. The TGI is > 100 µM in assay [6], > 86.2 µM in assay [8] and > 100 µM in [9].

`CCN(CC)c1ccc2c(c1)Oc1nc(N)c(C#N)c(N)c1C2Sc1ccc(SC)cc1` (stereo not drawn): the GI50 in assay [1] was 2.59 µM; in assay [2] it was 1.39 µM; in assay [10], 0.528 µM; in assay [4], 1.74 µM; in [5], 1.97 µM; in assay [6], 1.84 µM. For the same compound, the GI50 in assay [7] was 2.38 µM; in assay [8], 1.65 µM; in [9] it was 1.42 µM. Besides, the TGI in assay [1] was 4.1 µM; in [2], 2.75 µM; in assay [10], 1.97 µM; in assay [4], 3.94 µM; in assay [5], 5.15 µM; in assay [6] it was 3.55 µM. For the same compound, the TGI in assay [7] was 4.72 µM; in [8], 3.01 µM; in assay [9], 2.78 µM.

The GI50 is the concentration at which growth is held to half of that of the control. A word on the TGI: it is the concentration giving total growth inhibition.
